Reference: PubChem BioAssay AID200 (DTP/NCI, 2004)
Several values for one entry are separate records, joined by “and”; a condition that tells them apart may be missing. Identical values can stand only once. Inconclusive results and toxic doses are left out. Rule for the calls: active = survival T/C of 150% or more; inactive = T/C below 125% in these data. Where a SMILES comes first, the peptide text is derived from it.

Tested on: B6C3F1 mice, B16 melanoma ip, median survival T/C
Assay: NCI In Vivo Anticancer Drug Screen. Data for tumor model B16 Melanoma (intraperitoneal) in B6C3F1 mice
Settings: endpoint: median survival time, higher = longer survival
In short: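 Readout: survival or tumor size in treated mice relative to vehicle controls (T/C). Model uses transplantable tumors grown in mice.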

[1] = dose: 100.0 mg/kg/injection, schedule: Q01DX009 (ip), vehicle: Klucel (hydroxypropylcellulose) (HPC)
[2] = dose: 200.0 mg/kg/injection, schedule: Q01DX009 (ip), vehicle: Klucel (hydroxypropylcellulose) (HPC)
[3] = dose: 400.0 mg/kg/injection, schedule: Q01DX009 (ip), vehicle: Klucel (hydroxypropylcellulose) (HPC)
[4] = dose: 25.0 mg/kg/injection, schedule: Q01DX009 (ip), vehicle: saline with Tween-80
[5] = dose: 50.0 mg/kg/injection, schedule: Q01DX009 (ip), vehicle: saline with Tween-80
[6] = dose: 100.0 mg/kg/injection, schedule: Q01DX009 (ip), vehicle: saline with Tween-80
[7] = dose: 12.5 mg/kg/injection, schedule: Q01DX009 (ip), vehicle: saline
[8] = dose: 25.0 mg/kg/injection, schedule: Q01DX009 (ip), vehicle: saline
[9] = dose: 50.0 mg/kg/injection, schedule: Q01DX009 (ip), vehicle: saline
[10] = dose: 100.0 mg/kg/injection, schedule: Q01DX009 (ip), vehicle: saline
[11] = dose: 200.0 mg/kg/injection, schedule: Q01DX009 (ip), vehicle: saline
[12] = dose: 12.5 mg/kg/injection, schedule: Q01DX009 (ip), vehicle: saline with Tween-80
[13] = dose: 200.0 mg/kg/injection, schedule: Q01DX009 (ip), vehicle: saline with Tween-80
[14] = dose: 12.5 mg/kg/injection, schedule: Q01DX009 (ip), vehicle: Klucel (hydroxypropylcellulose) (HPC)
[15] = dose: 25.0 mg/kg/injection, schedule: Q01DX009 (ip), vehicle: Klucel (hydroxypropylcellulose) (HPC)
[16] = dose: 50.0 mg/kg/injection, schedule: Q01DX009 (ip), vehicle: Klucel (hydroxypropylcellulose) (HPC)

Measured: T/C

CCCCC(NC(=O)CNC(=O)CNC(=O)OCc1ccccc1)C(=O)O (stereo not drawn) (HELM PEPTIDE1{[O=C(OCc1ccccc1)[*:2]].G.G.[CCCCC(N[*:1])C(=O)O]}$$$$V2.0)
inactive: [1] 102 % of control | [2] 105 % of control | [3] 96 % of control

O=C(NC(Cc1ccccc1)C(=O)O)c1ccccc1 (stereo not drawn)
inactive: [4] 112 % of control | [5] 112 % of control and 90 % of control | [6] 96 % of control and 100 % of control

O=c1cc(-c2ccccc2)nc(N[N+](=O)[O-])[nH]1
inactive: dose: 11.0 mg/kg/injection, schedule: Q01DX009 (ip), vehicle: Klucel (hydroxypropylcellulose) (HPC) 91 % of control | dose: 22.0 mg/kg/injection, schedule: Q01DX009 (ip), vehicle: Klucel (hydroxypropylcellulose) (HPC) 100 % of control | dose: 44.0 mg/kg/injection, schedule: Q01DX009 (ip), vehicle: Klucel (hydroxypropylcellulose) (HPC) 105 % of control | dose: 88.0 mg/kg/injection, schedule: Q01DX009 (ip), vehicle: Klucel (hydroxypropylcellulose) (HPC) 88 % of control

CN(C)[C@@H]1C(=O)C(C(N)=O)=C(O)[C@@]2(O)C(=O)C3=C(O)c4c(O)ccc(Cl)c4[C@@](C)(O)[C@H]3C[C@@H]12
inactive: [7] 97 % of control | dose: 12.5 mg/kg/injection, schedule: Q01DX009 (ip), vehicle: water 109 % of control | [8] 97 % of control | dose: 25.0 mg/kg/injection, schedule: Q01DX009 (ip), vehicle: water 105 % of control | [9] 101 % of control | dose: 50.0 mg/kg/injection, schedule: Q01DX009 (ip), vehicle: water 104 % of control | [10] 94 % of control | dose: 100.0 mg/kg/injection, schedule: Q01DX009 (ip), vehicle: water 100 % of control | [11] 98 % of control | dose: 200.0 mg/kg/injection, schedule: Q01DX009 (ip), vehicle: water 106 % of control

CCNC(=O)OCc1c(COC(=O)NCC)c(-c2ccc(Cl)c(Cl)c2)n2c1CCC2
active: [12] 162 % of control
inactive: dose: 0.78 mg/kg/injection, schedule: Q01DX009 (ip), vehicle: saline with Tween-80 95 % of control | dose: 3.12 mg/kg/injection, schedule: Q01DX009 (ip), vehicle: saline with Tween-80 119 % of control | [4] 103 % of control

COc1ccc(CC2C(=O)NC(C)C(=O)N(C)C3Cc4ccc(cc4)Oc4cc(ccc4O)CC(C(=O)NC(C)C(=O)NC(C)C(=O)N2C)N(C)C3=O)cc1 (stereo not drawn)
inactive: dose: 0.5 mg/kg/injection, schedule: Q01DX005 (ip), vehicle: saline with Tween-80 110 % of control | dose: 0.5 mg/kg/injection, schedule: Q01DX005 (iv), vehicle: saline with Tween-80 102 % of control and 104 % of control | dose: 0.5 mg/kg/injection, schedule: Q01DX009 (ip), vehicle: saline + Tween-80 + alcohol 118 % of control | dose: 1.0 mg/kg/injection, schedule: Q01DX005 (ip), vehicle: saline with Tween-80 124 % of control | dose: 1.0 mg/kg/injection, schedule: Q01DX005 (iv), vehicle: saline with Tween-80 109 % of control and 105 % of control | dose: 1.0 mg/kg/injection, schedule: Q01DX009 (ip), vehicle: saline + Tween-80 + alcohol 117 % of control | dose: 1.0 mg/kg/injection, schedule: Q01DX009 (ip), vehicle: saline with Tween-80 91 % of control | dose: 2.0 mg/kg/injection, schedule: Q01DX005 (iv), vehicle: saline with Tween-80 122 % of control and 107 % of control | dose: 2.0 mg/kg/injection, schedule: Q01DX009 (ip), vehicle: saline with Tween-80 122 % of control | dose: 4.0 mg/kg/injection, schedule: Q01DX005 (ip), vehicle: saline with Tween-80 122 % of control | dose: 4.0 mg/kg/injection, schedule: Q01DX005 (iv), vehicle: saline with Tween-80 109 % of control and 111 % of control | dose: 8.0 mg/kg/injection, schedule: Q01DX005 (iv), vehicle: saline with Tween-80 110 % of control and 116 % of control
active: dose: 0.25 mg/kg/injection, schedule: Q01DX009 (ip), vehicle: saline with Tween-80 158 % of control | dose: 0.5 mg/kg/injection, schedule: Q01DX009 (ip), vehicle: saline with Tween-80 162 % of control and 166 % of control | dose: 4.0 mg/kg/injection, schedule: Q01DX009 (ip), vehicle: other 150 % of control | dose: 4.0 mg/kg/injection, schedule: Q01DX009 (ip), vehicle: saline with Tween-80 161 % of control | dose: 8.0 mg/kg/injection, schedule: Q01DX009 (ip), vehicle: other 159 % of control

CN(C)CCC(C#N)(CCC1CCCCC1)c1ccccc1 (stereo not drawn)
inactive: dose: 10.0 mg/kg/injection, schedule: Q01DX009 (ip), vehicle: saline 95 % of control | dose: 20.0 mg/kg/injection, schedule: Q01DX009 (ip), vehicle: saline 95 % of control | dose: 40.0 mg/kg/injection, schedule: Q01DX009 (ip), vehicle: saline 92 % of control

CC(CNC(=O)CCOS(C)(=O)=O)NC(=O)CCOS(C)(=O)=O (stereo not drawn)
active: [10] 187 % of control | [11] 177 % of control and 240 % of control

CCN(CC)CC(=O)c1ccc(O)c(O)c1
inactive: [6] 92 % of control | [13] 107 % of control | dose: 400.0 mg/kg/injection, schedule: Q01DX009 (ip), vehicle: saline with Tween-80 117 % of control

Nc1nc([Se]c2nc(N)nc3c2ncn3C2OC(CO)C(O)C2O)c2ncn(C3OC(CO)C(O)C3O)c2n1 (stereo not drawn)
inactive: dose: 25.0 mg/kg/injection, schedule: Q01DX009 (ip), vehicle: distilled water + Tween-80 108 % of control | dose: 50.0 mg/kg/injection, schedule: Q01DX009 (ip), vehicle: distilled water + Tween-80 112 % of control | dose: 100.0 mg/kg/injection, schedule: Q01DX009 (ip), vehicle: distilled water + Tween-80 89 % of control | dose: 200.0 mg/kg/injection, schedule: Q01DX009 (ip), vehicle: distilled water + Tween-80 87 % of control

S=C(Nc1ccc(Cl)c(Cl)c1)N1c2ccccc2-n2cccc2C1c1cccnc1 (stereo not drawn)
inactive: [14] 90 % of control and 98 % of control and 102 % of control | [12] 99 % of control | [15] 91 % of control and 94 % of control and 98 % of control | [4] 102 % of control | [16] 90 % of control and 104 % of control and 107 % of control | [5] 99 % of control | [1] 88 % of control and 91 % of control and 97 % of control | [6] 107 % of control | [2] 114 % of control and 90 % of control (2×) | [13] 102 % of control | [3] 91 % of control

c1cn[nH]c1
inactive: [7] 94 % of control | [8] 118 % of control | [9] 118 % of control | [10] 106 % of control

CO[C@H]1C[C@H](O[C@H]2CC[C@@]3(C)[C@H](CC[C@@H]4[C@@H]3CC[C@]3(C)[C@@H](C5=CC(=O)OC5)CC[C@]43O)C2)O[C@H](C)[C@H]1O
inactive: dose: 1.9 mg/kg/injection, schedule: Q01DX009 (ip), vehicle: Klucel (hydroxypropylcellulose) (HPC) 88 % of control | dose: 2.8 mg/kg/injection, schedule: Q01DX009 (ip), vehicle: Klucel (hydroxypropylcellulose) (HPC) 100 % of control | dose: 4.3 mg/kg/injection, schedule: Q01DX009 (ip), vehicle: Klucel (hydroxypropylcellulose) (HPC) 102 % of control | dose: 6.4 mg/kg/injection, schedule: Q01DX009 (ip), vehicle: Klucel (hydroxypropylcellulose) (HPC) 94 % of control

CC(C)(C)OC(=O)NCCCCC(NC(=O)OCc1ccccc1)C(=O)O (stereo not drawn)
inactive: [15] 109 % of control | [16] 94 % of control | [1] 98 % of control

OCC[N+]12CN3CN(CN(C3)C1)C2
inactive: [8] 101 % of control | [9] 109 % of control | [10] 103 % of control | [11] 108 % of control | dose: 400.0 mg/kg/injection, schedule: Q01DX009 (ip), vehicle: saline 108 % of control

COC1=CC(=O)c2c(O)cc(OC)c(O)c2C1=O
inactive: dose: 1.25 mg/kg/injection, schedule: Q01DX009 (ip), vehicle: saline with Tween-80 105 % of control | dose: 2.5 mg/kg/injection, schedule: Q01DX009 (ip), vehicle: saline with Tween-80 121 % of control | dose: 5.0 mg/kg/injection, schedule: Q01DX009 (ip), vehicle: saline with Tween-80 121 % of control | dose: 10.0 mg/kg/injection, schedule: Q01DX009 (ip), vehicle: saline with Tween-80 121 % of control

Cc1cc(N=NC(N)=S)c2ccccc2c1O
inactive: dose: 3.13 mg/kg/injection, schedule: Q01DX009 (ip), vehicle: saline with Tween-80 94 % of control | dose: 6.25 mg/kg/injection, schedule: Q01DX009 (ip), vehicle: saline with Tween-80 86 % of control | [12] 87 % of control

CC1C=NNC1=O (stereo not drawn)
inactive: [14] 100 % of control | [15] 102 % of control | [16] 117 % of control | [1] 92 % of control | [2] 95 % of control | [3] 95 % of control
